# Reference: patent US20260232639A1, “COMPOUNDS FOR USE IN THE TREATMENT OF SCHIZOPHRENIA” (ONTRACK THERAPEUTICS LIMITED, priority 2023, published 2026)
# Experiments:
# [1] = target: tropomyosin receptor kinase B (TrkB) (Homo sapiens, UniProt Q16620); settings: known from the art; cited from earlier work
# scPCP treated rats [2] = settings: 7-day treatment; female rats; McLean et al., 2008, 2012; cited from earlier work
# scPCP treated rats [3] = assay: Attentional set-shifting task (ASST) in sub-chronic PCP treated rats; settings: for Number of trials to criterion in the EDS phase (FIG. 20): 21-day treatment, compared to scPCP group
# scPCP treated rats [4] = assay: Social interaction test in sub-chronic PCP treated rats; settings: for Object exploration duration, inanimate object (FIG. 10): 21-day test article 10 & 30 mg/kg p.o.
# scPCP treated rats [5] = assay: Novel object recognition (NOR) test in sub-chronic PCP treated rats; settings: for Time spent exploring the novel versus familiar object in the retention trial (FIG. 6): 20-day treatment with compound of Formula I 10 & 30 mg/kg p.o.; for Time spent exploring the novel versus familiar object in the retention trial (FIG. 2): compound of Formula I 10 & 30 mg/kg p.o.
# PSD95 = assay: Simple Western of synaptic marker PSD95 in prefrontal cortex of scPCP-treated rats; assay type: in vivo, rat; settings: Example 4, 21-day treatment
# Procedure: (§1) Remaining ½ brains (remaining hemispheres) were processed for protein analysis of BDNF using ELISA (quantified in the prefrontal cortex and the dorsal hippocampus) and synaptic markers using Simple Western (quantified in the prefrontal cortex).
# Prefrontal Cortex and dorsal hippocampus were dissected from the frozen brain and homogenised on ice in a 10-fold volume (mg:μL) of buffer (10 mM Trizma base, Sigma-Aldrich; […] sucrose, Sigma-Aldrich; 2 mM EDTA, Sigma-Aldrich; and protease- and phosphatase-inhibitor cocktails, Sigma-Aldrich) buffered to a pH of 7.4. Phenylmethylsulfonyl fluoride (PMSF) and sodium orthovanadate were added to the solution at a 1% (v/v) concentration. Samples were centrifuged at 800×g for 15 minutes at 4° C. […]
# Protein concentrations of each sample were calculated using a Bradford Assay. […]
# A WES plate was prepared following the provided instructions (SM-W004, ProteinSimple). […] Finally, the chemiluminescent substrate was added into the capillaries, and the camera detected the levels of chemiluminescence at 9 different timepoints (1-512 seconds). The software then calculated the high dynamic range (HDR) of the peaks, which is calculated from the individual exposures and provides the largest dynamic range of the signal with the lowest background. The HDR peak is then used to calculate the area under the curve, which is analogous to the quantity of protein in the sample. […]
# BDNF = BDNF ELISA in brain tissue of scPCP-treated rats; assay type: in vivo, rat; settings: Example 4; 21-day treatment; two different protein concentrations
# Procedure: as §1
# (§2) Prefrontal Cortex and dorsal hippocampus were dissected from the frozen brain and homogenised on ice in a 10-fold volume (mg:μL) of buffer (10 mM Trizma base, Sigma-Aldrich; […] sucrose, Sigma-Aldrich; 2 mM EDTA, Sigma-Aldrich; and protease- and phosphatase-inhibitor cocktails, Sigma-Aldrich) buffered to a pH of 7.4. Phenylmethylsulfonyl fluoride (PMSF) and sodium orthovanadate were added to the solution at a 1% (v/v) concentration. Samples were centrifuged at 800×g for 15 minutes at 4° C. The supernatant was collected and centrifuged at 11,700×g for 20 minutes, and the resulting supernatant was collected and stored at −20° C. until analysis.
# Protein concentrations of each sample were calculated using a Bradford Assay. Samples were diluted into protein assay dye reagent concentrate (BioRad) and compared to bovine serum albumin (Sigma) of known concentration (1.0-0.1 mg/ml protein). […]
# (§3) BDNF and synaptic markers were analysed using a one-way ANOVA followed by planned post hoc analysis to investigate differences between treatment groups for Prefrontal Cortex (BDNF & Synaptic markers) and Dorsal Hippocampus (BDNF) respectively.
# SNAP25 = assay: Simple Western of synaptic marker SNAP25 in prefrontal cortex of scPCP-treated rats; assay type: in vivo, rat; settings: 21-day treatment; for SNAP25 levels in the total prefrontal cortex (FIG. 18): Example 3, vs scPCP; for scPCP-induced loss of SNAP25, relative protein level in prefrontal cortex (FIG. 21): Example 4
# Procedure: as §1, §2
# Protein concentrations of each sample were calculated using a Bradford Assay. Samples were diluted into protein assay dye reagent concentrate (BioRad) and compared to bovine serum albumin (Sigma) of known concentration (1.0-0.1 mg/ml protein). A standard curve was created using a simple linear regression. Standards and samples were run in triplicate. An outlying value from a triplicate was removed if the CV value was greater than 10%.
# A WES plate was prepared following the provided instructions (SM-W004, ProteinSimple). Diluted samples were mixed with dithiothreitol and fluorescent master mix in an 8:1:1 ratio. Samples were denatured at 95° C. for five minutes. The samples, antibody diluent, primary antibody, secondary antibody and luminol-peroxide mix were loaded into appropriate wells. A biotinylated ladder, antibody diluent, streptavidin-HRP and luminol peroxide were also loaded. After brief centrifugation of the plate, wash buffer was added. The plate was then placed into the WES machine, whereby the load separation matrix is aspirated, and stacking matrix drawn up into each capillary. […] Finally, the chemiluminescent substrate was added into the capillaries, and the camera detected the levels of chemiluminescence at 9 different timepoints (1-512 seconds). The software then calculated the high dynamic range (HDR) of the peaks, which is calculated from the individual exposures and provides the largest dynamic range of the signal with the lowest background. The HDR peak is then used to calculate the area under the curve, which is analogous to the quantity of protein in the sample. […]
# as §3
# parvalbumin interneurons = assay: Parvalbumin immunohistochemistry in brains of scPCP-treated rats; assay type: in vivo, rat; settings: 21-day treatment, 30 mg/kg p.o.
# Procedure: Animals were culled by increasing concentration of carbon dioxide and death was confirmed by cervical dislocation. Brains were removed, frozen on dry ice and stored at −80° C. until analysis.
# ½ brains (one hemisphere) were randomly selected and processed for parvalbumin immunohistochemistry (IHC), quantified in the prefrontal cortex and dorsal hippocampus.
# Sections (30 μm thickness) were washed in 1× PBS three times for five minutes each. Sections underwent heat-induced antigen retrieval in sodium citrate buffer (0.294% (w/v) sodium citrate, 0.07% (v/v) tween-20, 500 ml distilled water, pH adjusted to 6.0) for 30 minutes at 80° C. Unless otherwise stated, samples were washed twice in 1× PBS between each step.
# Parvalbumin (PV) sections were processed for light microscopy. […]
# Images were acquired on a 3D-Histech Pannoramic-250 microscope slide-scanner using a 20×/0.80 Plan Apochromat objective (Zeiss). […] For PV images, the region of interest was delineated, and the number of cell detections were manually counted within the CaseViewer software. Density was calculated by dividing the number of positive cell detections by the area of the region of interest.
# Parvalbumin density in the Prefrontal Cortex and Dorsal Hippocampus were analysed using a repeated measure two-way ANOVA with region and treatment as fixed factors. […]
# [6] = acute risperidone 0.1 mg/kg i.p.
# [7] = 20-day phase, scPCP rats, acute risperidone 0.1 mg/kg i.p.
# [8] = acute risperidone 0.1 mg/kg i.p., scPCP rats
# [9] = acute phase, scPCP rats, risperidone 0.1 mg/kg i.p., 60 min prior to testing
# [10] = acute treatment, risperidone 0.1 mg/kg i.p., scPCP rats
# Sequence of tropomyosin receptor kinase B (TrkB) (Q16620 32-822, species assumed): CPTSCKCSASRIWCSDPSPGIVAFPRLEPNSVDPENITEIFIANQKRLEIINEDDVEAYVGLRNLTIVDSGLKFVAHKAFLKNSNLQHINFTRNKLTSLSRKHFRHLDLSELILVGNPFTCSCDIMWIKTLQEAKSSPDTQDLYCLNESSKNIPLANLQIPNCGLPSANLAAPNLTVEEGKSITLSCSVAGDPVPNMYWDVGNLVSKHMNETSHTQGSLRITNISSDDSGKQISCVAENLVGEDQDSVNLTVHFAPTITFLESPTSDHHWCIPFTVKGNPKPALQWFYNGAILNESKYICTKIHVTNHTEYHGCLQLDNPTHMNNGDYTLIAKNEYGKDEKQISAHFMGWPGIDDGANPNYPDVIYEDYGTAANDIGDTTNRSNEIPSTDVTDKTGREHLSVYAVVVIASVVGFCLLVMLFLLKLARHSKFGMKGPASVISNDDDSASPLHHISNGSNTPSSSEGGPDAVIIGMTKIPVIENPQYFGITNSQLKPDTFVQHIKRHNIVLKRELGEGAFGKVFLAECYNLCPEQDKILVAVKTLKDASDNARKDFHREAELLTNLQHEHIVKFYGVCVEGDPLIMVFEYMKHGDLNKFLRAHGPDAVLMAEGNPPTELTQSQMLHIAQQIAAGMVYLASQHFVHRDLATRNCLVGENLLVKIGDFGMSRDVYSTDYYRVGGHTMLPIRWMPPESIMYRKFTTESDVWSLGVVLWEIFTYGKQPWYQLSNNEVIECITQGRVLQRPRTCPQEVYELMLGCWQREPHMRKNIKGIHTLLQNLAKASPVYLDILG
smiles,measurement,setting,value
"O=c1cc(-c2ccccc2)oc2c(O)c(O)ccc12 [tropoflavin, 7,8-dihydroxyflavone]",Agonism of TrkB,[1],potent and selective agonist
"Cc1nc2n(c(=O)c1CCN1CCC(c3noc4cc(F)ccc34)CC1)CCCC2 [Risperidone, risperidone]",Reversal of scPCP deficit in the extra-dimensional shift,scPCP treated rats [2],reversed
same,scPCP-induced deficit in the EDS phase (FIG. 20),scPCP treated rats [3]; [6],significantly (P<0.01) reversed
same,"Object exploration duration, inanimate object (FIG. 10)",scPCP treated rats [4]; [6],no differences
same,Sniffing duration (FIG. 9),"scPCP treated rats [4]; acute risperidone 0.1 mg/kg i.p., 60 min prior to testing",increase the amount of time the rat spent sniffing to a similar level as that observed by the higher dose of test article
same,Acquisition total exploration time,scPCP treated rats [5]; [7],25.5 ± 3.4 s
same,Retention total exploration time,scPCP treated rats [5]; [7],17.8 ± 1.1 s
same,Time spent exploring the novel versus familiar object in the retention trial (FIG. 6),scPCP treated rats [5]; [8],statistically significant increase
same,Acquisition total exploration time,scPCP treated rats [5]; [9],22.81 ± 4.03 s
same,Retention total exploration time,scPCP treated rats [5]; [9],23.10 ± 2.92 s
same,Time spent exploring the novel versus familiar object in the retention trial (FIG. 2),scPCP treated rats [5]; [10],statistically significant increase
same,Discrimination index (DI) (FIG. 3),scPCP treated rats [5]; [10],higher discrimination index (DI) than those without treatment
O=C(CCCN1CCC(O)(c2ccc(Cl)cc2)CC1)c1ccc(F)cc1 [haloperidol],Reversal of scPCP deficit in the extra-dimensional shift,scPCP treated rats [2],not
"N#Cc1ccc(-c2cc(=O)c3ccc4[nH]c(C(F)(F)F)nc4c3o2)cc1 [Compound of Formula I, 4-(6-oxo-2-(trifluoromethyl)-3,6-dihydrochromeno[7,8-d]imidazol-8-yl)benzonitrile]","scPCP-induced loss of PSD95, relative protein level in prefrontal cortex (FIG. 21)",PSD95; 30 mg/kg p.o.,not
same,"scPCP-induced loss of PSD95, relative protein level in prefrontal cortex (FIG. 21)",PSD95; 3 and 10 mg/kg p.o.,significantly alleviated
same,Number of trials to criterion in the EDS phase (FIG. 20),scPCP treated rats [3]; 3 mg/kg p.o.,No significant reduction
same,Number of trials to criterion in the EDS phase (FIG. 20),scPCP treated rats [3]; 10 mg/kg p.o.,near significant reductions
same,Number of trials to criterion in the EDS phase (FIG. 20),scPCP treated rats [3]; 30 mg/kg p.o.,significant reductions
same,Concentration of BDNF in the dorsal hippocampus (FIG. 22),BDNF,increase the level of BDNF back to that of vehicle treated animals
same,SNAP25 levels in the total prefrontal cortex (FIG. 18),SNAP25; 10 mg/kg p.o.,increased significantly
same,SNAP25 levels in the total prefrontal cortex (FIG. 18),SNAP25; 30 mg/kg p.o.,not
same,"scPCP-induced loss of SNAP25, relative protein level in prefrontal cortex (FIG. 21)",SNAP25; 30 mg/kg p.o.,not
same,"scPCP-induced loss of SNAP25, relative protein level in prefrontal cortex (FIG. 21)",SNAP25; 3 and 10 mg/kg p.o.,significantly alleviated
same,"Object exploration duration, inanimate object (FIG. 10)",scPCP treated rats [4]; [6],no differences
same,"Sniffing duration, social impairment deficit (FIG. 9)","scPCP treated rats [4]; 21-day treatment, 10 & 30 mg/kg p.o.",able to rescue the social impairment deficit in the scPCP treated rats in a dose dependent manner
same,PV cell density in the total prefrontal cortex (FIG. 13),parvalbumin interneurons; compared to scPCP group,significantly increased
same,"PV cell density in subregions of the prefrontal cortex (Cg1, PrL, IL) (FIG. 12)",parvalbumin interneurons; vs scPCP,significantly increased
same,Time spent exploring the novel versus familiar object in the retention trial (FIG. 6),scPCP treated rats [5]; [8],dose dependent statistically significant effect
same,Discrimination index (DI) (FIG. 7),"scPCP treated rats [5]; 20-day treatment, 30 mg/kg p.o., compared to scPCP animals without treatment",statistically significant increase
same,Time spent exploring the novel versus familiar object in the retention trial (FIG. 2),scPCP treated rats [5]; [10],not shown to have a difference
